According to ChEMBL document CHEMBL4813942, “Hydrated Rubrolides from the New Zealand Tunicate Synoicum kuranui” (2021):
Values after ≈ are worked out from the molar mass of the structure shown. Active and inactive are the calls of the source. No cut-off for these calls is given here.

How the values were obtained:
[1] = system: Staphylococcus aureus; assay: Antibacterial activity against methicillin-sensitive Staphylococcus aureus ATCC 25923 assessed as bacterial growth inhibition measured after 16 hrs by serial dilution method; format: functional
[2] = system: Staphylococcus aureus; assay: Antibacterial activity against methicillin-resistant Staphylococcus aureus ATCC 43300 assessed as bacterial growth inhibition measured after 16 hrs by serial dilution method; format: functional
[3] = system: Bacillus subtilis; assay: Antibacterial activity against Bacillus subtilis 168 assessed as bacterial growth inhibition measured after 16 hrs by serial dilution method; format: functional; details: subsp. subtilis str. 168
[4] = system: HCT-116; assay: Cytotoxicity against human HCT-116 cells assessed as reduction in cell growth at 0.06 to 30 uM measured after 48 hrs by MTS assay; format: functional, cell-based; details: dose 0.06-30 µM
[5] = system: HCT-116; assay: Cytotoxicity against human HCT-116 cells assessed as reduction in cell growth at 12.8 uM measured after 48 hrs by MTS assay; format: functional, cell-based

## CN(C)[C@@H]1C(O)=C(C(N)=O)C(=O)[C@@]2(O)C(O)=C3C(=O)c4c(O)cccc4[C@@](C)(O)[C@H]3C[C@@H]12 [TETRACYCLINE]
[1]
  MIC: < 0.25 mg/L
[2]
  MIC: < 0.25 mg/L
[3]
  MIC: 2 mg/L (≈ 4.5 µM)

## O=C1C=C(c2cc(Br)c(O)c(Br)c2)/C(=C/c2cc(Br)c(O)c(Br)c2)O1 [RUBROLIDE A]
[1]
  MIC: 8 mg/L (≈ 13.4 µM)
[4]
  Activity: inactive
[2]
  MIC: 2 mg/L (≈ 3.36 µM)
[3]
  MIC: 2 mg/L (≈ 3.36 µM)

## O=C1C=C(c2cc(Br)c(O)c(Br)c2)C(O)(Cc2ccc(O)c(Br)c2)O1 (centres undefined)
[1]
  MIC: > 128 mg/L
[5]
  Activity: Active
[2]
  MIC: > 128 mg/L
[3]
  MIC: > 128 mg/L

## O=C1C=C(c2cc(Br)c(O)c(Br)c2)C(O)(Cc2cc(Br)c(O)c(Br)c2)O1 (centres undefined)
[1]
  MIC: 32 mg/L (≈ 52.1 µM)
[4]
  Activity: inactive
[2]
  MIC: 16 mg/L (≈ 26.1 µM)
[3]
  MIC: 32 mg/L (≈ 52.1 µM)

## O=C1OC(O)(Cc2ccc(O)cc2)C(c2cc(Br)c(O)c(Br)c2)=C1Cl (centres undefined)
[1]
  MIC: 128 mg/L (≈ 261 µM)
[4]
  Activity: inactive
[2]
  MIC: 128 mg/L (≈ 261 µM)
[3]
  MIC: 128 mg/L (≈ 261 µM)
